The numbers were not newly measured in patent publication EP1180016B1, “METHODS AND COMPOSITIONS FOR NON-VIRAL GENE THERAPY FOR TREATMENT OF HYPERPROLIFERATIVE DISEASES” (Introgen Therapeutics, Inc., priority 1999, dated 2000), which cites them from elsewhere.

Each structure is given as a SMILES string. Counter-ions that a name gives are not always drawn. *1 amine or outer side, *2 acyl side, *3 side chain or, on linkers, in order; H or OH if unused. Where a SMILES comes first, the peptide text is derived from it. Bridges are numbered along the chain shown (N, C = ends). Roman numbers before positions name the chains, in order. [ ]: non-standard residue; d: D form. Actinocin(9to1) = Cc1c2oc3c(C)ccc(C(=O)[*:1])c3nc-2c(C(=O)[*:2])c(N)c1=O; NMeV = CN[C@H](C(=O)O)C(C)C; Sar = CNCC(=O)O

The conditions of data set [1]: physiological pH.
Data set [2] has as its system chronic myelogenous leukemia. As to conditions: previously untreated chronic myelogenous leukemia.

Take `Cc1c2oc3c(C)ccc(C(=O)N[C@@H]4C(=O)N[C@H](C(C)C)C(=O)N5CCC[C@H]5C(=O)N(C)CC(=O)N(C)[C@@H](C(C)C)C(=O)O[C@@H]4C)c3nc-2c(C(=O)N[C@@H]2C(=O)N[C@H](C(C)C)C(=O)N3CCC[C@H]3C(=O)N(C)CC(=O)N(C)[C@@H](C(C)C)C(=O)O[C@@H]2C)c(N)c1=O` [Actinomycin D] (I: T[dV]P[Sar][NMeV] / II: T[dV]P[Sar][NMeV]; ester I:1-I:C, II:1-II:C; linker I:N-II:N via Actinocin(9to1)): the “dose excreted intact into the bile” value (in vivo) is “Half”.

Consider `O=C(O)CCCc1ccc(N(CCCl)CCCl)cc1` [Chlorambucil, 4-[bis(2-chlorethyl)amino] benzenebutanoic acid], for which the “terminal half-life of the parent drug” value (single oral doses of 0.6-[…]) is 1.5 h. For the compound `COc1cccc2c1C(=O)c1c(O)c3c(c(O)c1C2=O)C[C@@](O)(C(C)=O)C[C@@H]3O[C@H]1C[C@H](N)[C@H](O)[C@H](C)O1` [Daunorubicin, 5,12-Naphthacenedione, (8S-cis)-8-acetyl-10-[(3-amino-2,3,6-trideoxy-a-L-lyxo-hexanopyranosyl)oxy]-7,8,9,10-tetrahydro-6,8,11-trihydroxy-10-methoxy-, hydrochloride], the half-life of distribution (intravenous) is 0.75 h. With `O=NN(CCCl)C(=O)NC1CCCCC1` [Lomustine, 1-(2-chloro-ethyl)-3-cyclohexyl-1 nitrosourea], the “radioactivity excreted in the form of degradation products within 24 hours” value (oral radioactive lomustine, 30 mg/m^2 to 100 mg/m^2) was “about half”. The ionization result in data set [1] is “relatively unionized”. `CS(=O)(=O)OCCCCOS(C)(=O)=O` [Busulfan, 1,4-butanediol dimethanesulfonate]: the “adults obtaining hematologic remission with regression or stabilization of organomegaly” value in data set [2] is recorded as “Approximately 90%”.
